Here are results for 10 compounds from patent US7651999B2, “2′, 5′-oligoadenylate analogs” (Sankyo Company, Limited, priority 2002, dated 2010).

The test system of this assay is Human lung cancer cell line A549 cells. The settings on record: 72 hours, MTT, 0.001-10 μM tested.
The mark [1] stands for this setting: read-out: 50% Growth inhibitory concentrations of the subject compounds with respect to A549 cells, Experiment 1.
Setting [2] is: read-out: 50% Growth inhibitory concentrations of the subject compounds with respect to A549 cells, Experiment 2.
The mark [3] stands for this setting: read-out: 50% Growth inhibitory concentrations of the subject compounds with respect to A549 cells, Experiment 3.

pIC50: −log10 of the molar value. Where two headings read alike, the source gives them in different places.

Description: Human lung cancer cell line A549 cells were plated at a density of 800 cells/200 μl in a 96-well plate using RPMI1640 (Gibco BRL) (containing 10% Fetal Bovine Serum (Hyclone)) for the medium followed by culturing overnight in 5% CO2 at 37° C. Each 2-5A analog was added to each well so that the final concentration became 0.001-10 μM, followed by culturing for 72 hours (3 days) (n=3 or 4). After culturing for 72 hours (3 days), MTT (3-[4,5-dimethylthiazol-2-yl]-2,5-diphenyltetrazolium bromide) was added in 50 μl aliquots to each well at a MTT/RPMI1640 concentration of 5 mg/ml, followed by additionally culturing for 4 hours. After 4 hours, the medium was removed and 150 μl of dimethyl sulfoxide were added to each well. After shaking for 5 minutes, UV absorbance at 540 nm, was measured to determine the relative ratio of the number of viable cells of the compound dose group to the number of viable cells of an untreated cell group followed by calculation of the IC50 concentration that inhibits cell growth by 50%.

In the case of `COC1C(OP(=O)(O)OC[C@H]2O[C@@H](n3cnc4c(N)ncnc43)C(OP(=O)(O)OC[C@]34CCCOC3C(O)[C@H](n3cnc5c(N)ncnc53)O4)C2O)[C@H](n2cnc3c(N)ncnc32)O[C@@H]1COP(O)(O)=S` (some centres unmarked) [Example 2], the pIC50 is, setting by setting: under setting [1], 5.82; under setting [2], 6.04.

As to `Nc1ncnc2c1ncn2[C@@H]1O[C@H](COP(O)(=S)OC2C(O)[C@@H](COP(O)(=S)OC3C(O)[C@@H](COP(O)(O)=S)O[C@H]3n3cnc4c(N)ncnc43)O[C@H]2n2cnc3c(N)ncnc32)C(O)C1O` (some centres unmarked) [Example 4], the pIC50 was 6.32 under setting [1], 6.21 under setting [2] and 6.42 under setting [3].

With `COC1C(OP(=O)(O)OC[C@H]2O[C@@H](n3cnc4c(N)ncnc43)C(OP(=O)(O)OC[C@]34CCCOC3C(O)[C@H](n3cnc5c(N)ncnc53)O4)C2O)[C@H](n2cnc3c(N)ncnc32)O[C@@H]1COP(=O)(O)SCOC(=O)C(C)(C)C` (some centres unmarked) [Example 5], the pIC50 is 6.40 under setting [1] and 6.49 under setting [2].

With `Nc1ncnc2c1ncn2[C@@H]1O[C@@]2(COP(=O)(O)OC3C(O)[C@@H](COP(=O)(S)OC4C(O)[C@@H](COP(=O)(O)S)O[C@H]4n4cnc5c(N)ncnc54)O[C@H]3n3cnc4c(N)ncnc43)CCCOC2C1O` (some centres unmarked) [Example 8], the pIC50 under setting [1] was 5.65.

With `COC1C(OP(=O)(S)OC[C@H]2O[C@@H](n3cnc4c(N)ncnc43)C(OP(=O)(O)OC[C@]34CCCOC3C(O)[C@H](n3cnc5c(N)ncnc53)O4)C2O)[C@H](n2cnc3c(N)ncnc32)O[C@@H]1COP(=O)(O)SCOC(=O)C(C)(C)C` (some centres unmarked) [Example 9], the pIC50 under setting [1] was 5.86.

Regarding `COC1C(OP(=O)(O)OC[C@H]2O[C@@H](n3cnc4c(N)ncnc43)C(OP(=O)(O)OC[C@]34CCCOC3C(O)[C@H](n3cnc5c(N)ncnc53)O4)C2O)[C@H](n2cnc3c(N)ncnc32)O[C@@H]1COP(=O)(O)SCCOC(=O)C(C)(C)C` (some centres unmarked) [Example 13], under setting [2], the pIC50 is 5.60.

As to `COC1C(OP(=O)(O)OC[C@H]2O[C@@H](n3cnc4c(N)ncnc43)C(OP(=O)(O)OC[C@]34CCCOC3C(O)[C@H](n3cnc5c(N)ncnc53)O4)C2O)[C@H](n2cnc3c(N)ncnc32)O[C@@H]1COP(=O)(O)SCCOC(=O)c1ccccc1` (some centres unmarked) [Example 14], the pIC50 under setting [2] was 5.63.

For the compound `CCCCCCCCCCCCCC(=O)OCCSP(=O)(O)OC[C@H]1O[C@@H](n2cnc3c(N)ncnc32)C(OP(=O)(O)OC[C@H]2O[C@@H](n3cnc4c(N)ncnc43)C(OP(=O)(O)OC[C@]34CCCOC3C(O)[C@H](n3cnc5c(N)ncnc53)O4)C2O)C1OC` (some centres unmarked) [Example 16], the pIC50 under setting [2] was 7.05.

In the case of `CCCCCCCCCC(=O)OCCSP(=O)(O)OC[C@H]1O[C@@H](n2cnc3c(N)ncnc32)C(OP(=O)(O)OC[C@H]2O[C@@H](n3cnc4c(N)ncnc43)C(OP(=O)(O)OC[C@]34CCCOC3C(O)[C@H](n3cnc5c(N)ncnc53)O4)C2O)C1OC` (some centres unmarked) [Example 17], the pIC50 under setting [2] is 6.46.

`COC1C(OP(=O)(O)OC[C@H]2O[C@@H](n3cnc4c(N)ncnc43)C(OP(=O)(O)OC[C@]34CCCOC3C(O)[C@H](n3cnc5c(N)ncnc53)O4)C2O)[C@H](n2cnc3c(N)ncnc32)O[C@@H]1COP(=O)(O)SCCO` (some centres unmarked) [Example 33]: under setting [3], the pIC50 was 5.67.
